Results taken from patent US9274101B2 (BIOLOG, Inc., priority 2001, dated 2016).
Where two headings read alike, the source gives them in different places. Where a SMILES comes first, the peptide text is derived from it. [ ]: non-standard residue; d: D form.

What was measured:
[1] = tested on: HL-60 cells; experiment: HL-60 responses in PM1a, PM6, PM7 and PM8 plates; format: cell-based, human
Method: In this Example, methods for testing unattached cells for their ability to use various carbon sources including di and tri-peptides are described.
After washing, HL-60 cells were resuspended in DME-R. An aliquot of the cell suspension was counted by trypan blue exclusion and the cell density was adjusted to 1×10^6/mL. Fifty μL of DME-R were added to each well of the appropriate number of half area, 96-well plates. The cells were plated at a volume of 50 μL/well, giving a final cell density of 5×10^4/well. PM1a, MP6, PM7, and PM8 MICROPLATE testing plates were inoculated (these MICROPLATE testing plates are available from Biolog under license). For each plate containing chemicals and cells, a second, control plate containing only chemicals was prepared. All wells contained a total volume of 100 μL. Plates were incubated at 5% CO2, 90-100% humidity, and 37° C. for 1 hour prior to addition of the MTS/MPMS colorometric reagent (5 μL/well). The color formed in each well after an additional 24 hour incubation period, was measured on a plate reader at 490 nm with a reference wavelength of 650 nm. OD values from the control plate were subtracted from the OD values obtained with cells prior to normalizing the data to % negative control (cells without added energy source).

[2] = tested on: ten strains of E. coli; format: cell-based, Escherichia coli
[3] = tested on: E. coli MG1655; format: cell-based, Escherichia coli
[4] = tested on: HL-60 cells; experiment: Effect of 10 mM citric acid on HL-60 energy utilization; format: cell-based, human
[5] = tested on: E. coli MG1655; format: cell-based, Escherichia coli; remark: listed apart in the source
[6] = PM6, PM7, PM8, positive = greater than 130% of the negative control

With `CC(C)C[C@H](NC(=O)CNC(=O)CN)C(=O)O` as the compound, how does the “response of HL-60 cells to peptides” value [1] read?
The value was “positive response”.

Which results are given for `O=P(O)(O)OCC(O)CO` (racemic) [D,L-α-glycerol phosphate]?
carbon source utilization [2]: + and −; suitability as phosphorus source (growth, purple color) [3]: positive

How did the “response of HL-60 cells to peptides” value [1, 6] turn out when `C[C@@H](N)C(=O)N[C@H](C)C(=O)O` [D-ala-D-ala] (H-[dA]-[dA]-OH) was run?
Its value is “positive response”.

What does the source list for `O=C1O[C@@H]([C@H](O)CO)[C@H](O)[C@H]1O` [D-galactonic acid-γ-lactone]?
carbon source utilization [2]: − and +; carbon source utilization (text) [2]: negative; cell activity in the presence of citric acid, in words [4]: capable of overcoming the antiproliferative effects of citric acid

For `O=C(CO)[C@@H](O)[C@H](O)[C@H](O)COP(=O)(O)O` [Fructose-6-phosphate], which carbon source utilization [2] is on record?
The carbon source utilization was “+”.

And the “suitability as phosphorus source (growth, purple color)” value (shortened to “suitability as phosphorus source”) [3]?
Its value is “positive”.

What does the source list for `O=P(O)(O)O[C@H]1O[C@H](CO)[C@@H](O)[C@H](O)[C@H]1O` [Glucose-1-phosphate]?
carbon source utilization [2]: +; suitability as phosphorus source (growth, purple color) [3]: positive

Which results are given for `O=C[C@H](O)[C@@H](O)[C@H](O)[C@H](O)COP(=O)(O)O` [Glucose-6-phosphate]?
carbon source utilization [2]: +; suitability as phosphorus source (growth, purple color) [3]: positive

For `N[C@@H](CS)C(=O)O` [L-cysteine], which “suitability as sulfur source (growth, purple color)” value (“suitability as sulfur source” below) [3] is on record?
Its value is “positive”.

What about the “suitability as nitrogen source (growth, purple color)” value [5] of the same compound?
The value was “not suitable”.

`O=C1O[C@H]([C@@H](O)CO)[C@@H](O)[C@@H]1O` [L-galactonic acid γ-lactone] was tested. Which carbon source utilization [2] did it give?
The carbon source utilization was “+”.

What about the “cell activity in the presence of citric acid, in words” value [4] of the same compound?
Its value is “capable of overcoming the antiproliferative effects of citric acid”.

For `COC(=O)CCC(=O)O` [Mono-methyl succinate], which carbon source utilization [2] is on record?
Its carbon source utilization is “+”.

And the “cell activity, % of the control without citric acid” value ([4]; 10 mM citric acid)?
The value was “up to 210%”.

With `NC(=O)CC[C@H](N)C(=O)N[C@@H](CCC(=O)O)C(=O)O` [gln-glu] (H-Gln-Glu-OH) as the compound, how does the “response of HL-60 cells to peptides” value [1, 6] read?
Its value is “positive response”.

`NCC(=O)N[C@H](CO)C(=O)O` [gly-D-ser] (H-Gly-[dS]-OH) was tested. Which “response of HL-60 cells to peptides” value [1, 6] did it give?
Its value is “positive response”.

How did the “response of HL-60 cells to peptides” value [1, 6] turn out when `CC(C)[C@@H](NC(=O)CN)C(=O)O` [gly-D-val] (H-Gly-[dV]-OH) was run?
The value was “positive response”.

For `CC[C@H](C)[C@H](NC(=O)CNC(=O)CN)C(=O)O` [gly-gly-ile] (H-Gly-Gly-Ile-OH), which “response of HL-60 cells to peptides” value [1, 6] is on record?
Its value is “positive response”.

`NCC(=O)NCC(=O)O` [gly-gly] (H-Gly-Gly-OH) was tested. Which “response of HL-60 cells to peptides” value [1, 6] did it give?
The value was “positive response”.

For `NCC(=O)N[C@@H](Cc1cnc[nH]1)C(=O)O` [gly-his] (H-Gly-His-OH), which “response of HL-60 cells to peptides” value [1, 6] is on record?
Its value is “positive response”.

Which “response of HL-60 cells to peptides” value [1, 6] does the source give for `CC(C)[C@H](NC(=O)CN)C(=O)O` [gly-val] (H-Gly-Val-OH) here?
The value was “positive response”.

How did the “suitability as phosphorus source” value [3] turn out when `Nc1nc2c(ncn2[C@@H]2O[C@H](CO)[C@H]3OP(=O)(O)O[C@H]32)c(=O)[nH]1` [guanosine 2′:3′-cyclic monophosphate] was run?
Its value is “positive”.

For `Nc1nc2c(ncn2[C@@H]2O[C@H](CO)[C@@H](OP(=O)(O)O)[C@H]2O)c(=O)[nH]1` [guanosine 3′-monophosphate], which “suitability as phosphorus source” value [3] is on record?
The value was “positive”.

For `Nc1nc2c(ncn2[C@@H]2O[C@@H]3COP(=O)(O)O[C@H]3[C@H]2O)c(=O)[nH]1` [guanosine 3′:5′-cyclic monophosphate], which “suitability as phosphorus source” value [3] is on record?
Its value is “not suitable”.

How did the “response of HL-60 cells to peptides” value [1, 6] turn out when `N[C@@H](Cc1cnc[nH]1)C(=O)N[C@@H](CC(=O)O)C(=O)O` [his-asp] (H-His-Asp-OH) was run?
The value was “positive response”.

Which “response of HL-60 cells to peptides” value [1, 6] does the source give for `N[C@@H](Cc1cnc[nH]1)C(=O)N[C@@H](Cc1cnc[nH]1)C(=O)O` [his-his] here?
The value was “positive response”.

`NCCS(=O)O` [hypotaurine] was tested. Which “suitability as sulfur source” value [3] did it give?
The value was “positive”.

With `CC[C@H](C)[C@H](N)C(=O)N[C@@H](CCC(N)=O)C(=O)O` [ile-gln] (H-Ile-Gln-OH) as the compound, how does the “response of HL-60 cells to peptides” value [1, 6] read?
Its value is “positive response”.

How did the “suitability as phosphorus source” value [3] turn out when `O=P(O)(O)O[C@H]1[C@H](OP(=O)(O)O)[C@@H](OP(=O)(O)O)[C@H](OP(=O)(O)O)[C@@H](OP(=O)(O)O)[C@H]1OP(=O)(O)O` [inositol hexaphosphate] was run?
Its value is “not suitable”.

Which “suitability as sulfur source” value [3] does the source give for `O=S(=O)(O)CCO` [isethionate] here?
The value was “positive”.

Which “suitability as sulfur source” value [3] does the source give for `N[C@@H](CSC[C@H](N)C(=O)O)C(=O)O` [lanthionine] here?
Its value is “positive”.

Which “suitability as phosphorus source” value [3] does the source give for `O=P(O)(O)OC1O[C@H](CO)[C@@H](O)[C@H](O)[C@@H]1O` (some centres unmarked) [mannose 1-phosphate] here?
Its value is “positive”.

How did the “suitability as phosphorus source” value [3] turn out when `O=C[C@@H](O)[C@@H](O)[C@H](O)[C@H](O)COP(=O)(O)O` [mannose 6-phosphate] was run?
Its value is “positive”.

`O=P(O)(O)CP(=O)(O)O` [methylene diphosphonic acid] was tested. Which “suitability as phosphorus source” value [3] did it give?
Its value is “not suitable”.

For `O=[N+]([O-])c1ccc(OP(=O)(O)O)cc1` [nitrophenyl phosphate], which “suitability as phosphorus source” value [3] is on record?
The value was “not suitable”.

How did the “response of HL-60 cells to peptides” value [1, 6] turn out when `N[C@@H](Cc1ccccc1)C(=O)N[C@@H](CC(=O)O)C(=O)O` [phe-asp] (H-Phe-Asp-OH) was run?
The value was “positive response”.

For `CN(CC(=O)O)C(=N)NP(=O)(O)O` [phosphocreatine], which “suitability as phosphorus source” value [3] is on record?
The value was “positive”.

How did the “suitability as phosphorus source” value [3] turn out when `C=C(OP(=O)(O)O)C(=O)O` [phosphoenol pyruvate] was run?
The value was “positive”.

`O=C(O)COP(=O)(O)O` [phosphoglycolic acid] was tested. Which “suitability as phosphorus source” value [3] did it give?
Its value is “positive”.

How did the “suitability as phosphorus source” value [3] turn out when `O=C(O)CP(=O)(O)O` [phosphonoacetic acid] was run?
Its value is “not suitable”.

How did the “response of HL-60 cells to peptides” value [1, 6] turn out when `C[C@H](NC(=O)[C@@H]1CCCN1)C(=O)O` [pro-ala] (H-Pro-Ala-OH) was run?
Its value is “positive response”.

How did the “response of HL-60 cells to peptides” value [1, 6] turn out when `O=C(O)[C@H](Cc1c[nH]c2ccccc12)NC(=O)[C@@H]1CCCN1` [pro-trp] (H-Pro-Trp-OH) was run?
The value was “positive response”.

Which “suitability as phosphorus source” value [3] does the source give for `O=P(O)(O)OP(=O)(O)O` [pyrophosphate] here?
Its value is “not suitable”.

How did the “response of HL-60 cells to peptides” value [1, 6] turn out when `CC(C)CC(NC(=O)C(N)CO)C(=O)O` (stereo not drawn) [ser-leu] (H-Ser-Leu-OH; configuration not given here) was run?
Its value is “positive response”.

With `CSCC[C@H](NC(=O)[C@@H](N)CO)C(=O)O` [ser-met] (H-Ser-Met-OH) as the compound, how does the “response of HL-60 cells to peptides” value [1, 6] read?
The value was “positive response”.

How did the “response of HL-60 cells to peptides” value [1] turn out when `N[C@@H](CO)C(=O)N[C@@H](Cc1ccccc1)C(=O)O` [ser-phe] was run?
Its value is “positive response”.

With `NCCS(=O)(=O)O` [taurine] as the compound, how does the “suitability as sulfur source” value [3] read?
The value was “positive”.

With `C[C@H](CCC(=O)NCCS(=O)(=O)O)[C@H]1CC[C@H]2[C@@H]3[C@H](O)C[C@@H]4C[C@H](O)CC[C@]4(C)[C@H]3C[C@H](O)[C@]12C` [taurocholic acid] as the compound, how does the “suitability as sulfur source” value [3] read?
Its value is “positive”.

For `O=S1(=O)CCCC1` [tetramethylene sulfone], which “suitability as sulfur source” value [3] is on record?
Its value is “not suitable”.

Which “suitability as sulfur source” value [3] does the source give for `O=S(=O)(O)SSS(=O)(=O)O` [tetrathionate] here?
Its value is “positive”.

With `O=C(O)CS` [thioglycolic acid] as the compound, how does the “suitability as sulfur source” value [3] read?
Its value is “not suitable”.

Which results are given for `OP(O)(O)=S` [thiophosphate]?
suitability as phosphorus source (growth, purple color) [3]: positive; suitability as sulfur source (growth, purple color) [3]: positive

How did the “suitability as sulfur source” value [3] turn out when `O=S(O)(O)=S` [thiosulfate] was run?
The value was “positive”.

How did the “response of HL-60 cells to peptides” value [1, 6] turn out when `CSCC[C@H](NC(=O)[C@@H](N)[C@@H](C)O)C(=O)O` [thr-met] (H-Thr-Met-OH) was run?
Its value is “positive response”.

With `C[C@@H](O)[C@H](N)C(=O)N1CCC[C@H]1C(=O)O` [thr-pro] (H-Thr-Pro-OH) as the compound, how does the “response of HL-60 cells to peptides” value [1, 6] read?
The value was “positive response”.

Which “suitability as phosphorus source” value [3] does the source give for `Cc1cn([C@H]2C[C@@H]3OP(=O)(O)OC[C@H]3O2)c(=O)[nH]c1=O` [thymidine 3′:5′-cyclic monophosphate] here?
Its value is “not suitable”.

How did the “suitability as phosphorus source” value [3] turn out when `Cc1cn([C@H]2C[C@H](O)[C@@H](COP(=O)(O)O)O2)c(=O)[nH]c1=O` [thymidine 5′-monophosphate] was run?
Its value is “positive”.

For `Cc1cn([C@H]2C[C@H](OP(=O)(O)O)[C@@H](CO)O2)c(=O)[nH]c1=O` [thyrnidine 3′-monophosphate], which “suitability as phosphorus source” value [3] is on record?
The value was “positive”.

`O=P(O)(O)OP(=O)(O)OP(=O)(O)O` [tripolyphosphate] was tested. Which “suitability as phosphorus source” value [3] did it give?
Its value is “not suitable”.

How did the “suitability as phosphorus source” value [3] turn out when `O=c1ccn([C@@H]2O[C@H](CO)[C@@H](O)[C@H]2OP(=O)(O)O)c(=O)[nH]1` [uridine 2′-monophosphate] was run?
The value was “positive”.

For `O=c1ccn([C@@H]2O[C@H](CO)[C@H]3OP(=O)(O)O[C@H]32)c(=O)[nH]1` [uridine 2′:3′-cyclic monophosphate], which “suitability as phosphorus source” value [3] is on record?
The value was “positive”.

With `O=c1ccn([C@@H]2O[C@@H]3COP(=O)(O)O[C@H]3[C@H]2O)c(=O)[nH]1` [uridine 3′:5′-cyclic monophosphate] as the compound, how does the “suitability as phosphorus source” value [3] read?
Its value is “not suitable”.

`O=P(O)(O)OC(CO)CO` [β-glycerophosphate] was tested. Which “suitability as phosphorus source” value [3] did it give?
The value was “positive”.

O-acetyle-serine with sodium sulfate was tested. Which “suitability as sulfur source” value [3] did it give?
Its value is “positive”.

For phosphatidyl glycerol, which “suitability as phosphorus source” value [3] is on record?
The value was “not suitable”.
